Assay results as given in patent publication US6441036B1 (priority 1998, dated 2002).

Assays:
[1] = Plasma lipids after feeding moderate doses to animals; type: in vivo, rats, mice, rabbits and dogs; details: within days of treatment
[2] = Blood insulin and glucose in 4 month old obese Zucker (fa/fa) rats (Example 13); type: in vivo; details: standard chow with 0.15% TTA, 21 days
Procedure: (§1) Glucose (GLU, Boehringer Mannheim, Germany), free fatty acids (NEFA, C ACS-ACOD kit; Wako Chemicals, Dalton, USA) and b-hydroxybutyrate (310-A kit; Sigma Diagnostics Inc., St. Louis, USA) concentrations were measured using enzymatic methods. Insulin concentrations were determined with radioimmunoassay by (CIS bio International, Gif sur Yvette, France) using rat insulin as standard in the Zucker rats. In the Wistar Charles River rats, plasma glucose concentrations were measured with the aid of Beckman Glucose Analyzer (Fullerton, Calif., USA). Plasma insulin levels were measured using a RIA kit from Linco Research Inc. (St. Charles, Mo., USA). Phospholipids were measured by the enzymatic method of bioMérieux, Marcy-l{grave over ( )}Etoile, France, Triacylglycerol by the Technicon Method no. SA4-0324L90, USA and Cholesterol by the Technicon Method no. SA4-0305L90, USA.
The rats were given a standard chow diet, either with (n=5) or without (n=6) 0.15% TTA. Following 21 days of treatment, blood was collected and the levels of insulin and glucose measured. Data are means±S.D.

[3] = Intravenous glucose tolerance test (IVGTT); type: in vivo; details: 5 weeks old Zucker (fa/fa) rats
Procedure: Male Zucker (fa/fa) rats (5 weeks old) were anaesthetised after a 5-hours fast, by intraperitoneal injection of sodium pentobarbital (50 mg/kg). The rats were injected with glucose (0.55 g/kg) in the saphenous vein and blood samples were collected from the tail vein in heparinized tubes at time 0, 5, 10, 15, 20 and 30 minutes after the glucose load. Samples were kept on ice, centrifuged and plasma was stored at −20° C. until analysis.

[4] = tested on: Salmonella typhimurium; assay: Test for mutagenic activity in Salmonella typhimurium strains; type: cell-based; details: 3-1000 mg/plate (TTA), 2-5000 mg/plate (TSA)
Text: (§2) Tests for mutagenic activity have been performed by Covance Laboratories Limited, England. […] Furthermore, TTA was not mutagenic when tested in mouse lymphoma cells […] L5178Y.

[5] = Euglycemic hyperinsulinemic clamp, high fat diet induced insulin resistance (Example 12); type: in vivo, Wistar Charles River rats; details: HF diet supplemented with TTA, 21 days; 45-90 minutes of clamp
Procedure: After 21 days on their respective diets (see above), the rats were anaesthetised by injection of xylazine hydrochloride (Rometar SPOFA, Prague, Czech Republic; 10 mg/ml) and ketamine hydrochloride (Narkamon SPOFA, Prague, Czech republic; 75 mg/ml), and fitted with chronic carotid artery and jugular vein cannulas as described by Koopmans et al. (Koopmans, S. J., et al., Biochim Biophys Acta, 1115, […] 1992.). The cannulated rats were allowed to recover for two days after surgery before the clamping studies which were carried out according to Kraegen et al. (Kraegen, E. W., et al., Am J Physiol, 248, E353-E362 1983.). Thus, on the third day after surgery, unrestrained conscious rats were given a continuous infusion of porcine insulin (Actrapid, Novo Nordisk, Denmark) at a dose of 6.4mU per kg per min to achieve plasma insulin levels in the upper physiological range. The arterial blood glucose concentration was clamped at the basal fasting level, by variable infusion of a 30% w/v glucose solution (Leciva, Prague, Czech Republic). […]
Rats weighing 330±20 g were divided into 3 groups (n=9) and fed with three different diets: standard rat chow, high fat diet (HF) and HF supplemented with TTA. […] The glucose infusion rate (GIR) was determined from the period of the clamp where glycemia got stabilised, i.e. between 45-90 minutes after clamp commencement. […]

[6] = Hepatic levels of triacylglycerol (Example 17); type: in vivo, Wistar rats; details: fed 6 days, no prefeeding; TTA 150 mg/kg/day, TTP 300 mg/kg/day
Procedure: Male Wistar rats had free access to water and rat maintenance chow. They were fed palmitic acid or fatty acid analogues suspended in 0.5% CMC for 6 days. In some experiments TTA or TTP were fed for 3 days before feeding both for 6 days. At the end of the experiment the rats were fasted overnight, killed, the liver removed and homogenized. Triacylglycerol was measured in the homogenate.

[7] = High fat diet feeding, adipose tissue weights (Example 5); type: in vivo, Wistar Charles River rats; details: high fat diet + 0.4% TTA, three weeks; means ± SEM
Procedure: Male Wistar rats Charles River rats weighing 280-358 g were purchases from AnLab Ltd. (Prague, Czech Repubic) and housed in wire-mesh cages in a temperature (22±1° C.) and light-controlled (light from 7:00 a.m. to 7.00 p.m.) room. They were given free access to chow and water. Three rats were housed per cage. Weight gain and food intake were recorded daily.
High fat (HF): 1.9% gelatin, 5.7% wheat bran, 7.7% vitamins and minerals, 25.4% corn starch, 25.7% casein, 26.8% beef tallow and 7.1 % sunflower oil.
HF+TTA: Same +0.4% TTA dissolved in the beef tallow.
Male Wistar Charles River rats (280-360 g) were fed 3 different diets (see methods) for 3 weeks ad libitum. Afterwards, they were killed by decapitation, liver and epididymal adipose tissue pads were dissected out and weighed.

[8] = Plasma free fatty acids and ketone bodies in old obese Zucker rats; type: in vivo, obese Zucker (fa/fa) rats; details: 21 week-old male rats, standard diet enriched with 0.15% TTA for 15 days; means ± SD
Procedure: as §1
Data are means±SD of six animals in both the control- and the experimental group. Free fatty acids (FFA) and ketone bodies (4-hydroxy butyrate)were measured in plasma and 3-hydroxy-3-methylglutaryl (HMG)—CoA synthase activities were measured in mitochondrial fractions prepared from the liver from 21 week-old male obese Zucker (fa/fa) rats given either a standard diet (control) or a standard diet enriched with 0.15% TTA for 15 days.

[9] = tested on: mouse lymphoma cells, L5178Y; assay: Mutagenicity test in mouse lymphoma cells L5178Y; type: cell-based; details: concentration 2.5-50 mg/ml
Text: as §2

[10] = Lipid lowering effect in normal Wistar rats (Example 4); type: in vivo; details: gavage once daily for 7 days; dose mg/day/kg body weight: TSA 15, EPA 1500, TTA 150
Procedure: Male Wistar rats, weighing 180-200 g at the start of the experiment, were housed individually in metal wire cages in a room maintained at 12 h light-dark cycles and a constant temperature of 20±3° C. The animals were acclimatised for one week under these conditions before the start of the experiments.
TTA, TSA and eicosapentaenoic acid (EPA) were suspended in 0.5% (w/v) carboxymethyl cellulose (CMC). Six animals were used for each treatment, and a 0.5% CMC solution was administrated to the rats as control. After administration of the test compound, the rats were fasted for 12 hours and anaesthetised with haloethan. The EPA and the fatty acid derivatives were administered by gastric intubation (gavage) once daily for 7 days. Blood samples were collected by cardiac puncture, and lipid concentrations in plasma were determined as outlined in the method section.

[11] = tested on: Escherichia coli; assay: Test for mutagenic activity in Escherichia coli strains; type: cell-based; details: 3-1000 mg/plate (TTA), 2-5000 mg/plate (TSA)
Text: as §2

**Q.** What does the source list for Tetradecylthioacetic acid [TTA]?
**A.** Plasma cholesterol and triacylglycerol levels [1]: decreased; Blood glucose concentration (FIG. 6) [2]: reduces; Blood insulin concentration (FIG. 6) [2]: reduces; IVGTT glucose curves (FIG. 7B) ([3]; TTA treated versus control): normal and comparable; Plasma insulin response to glucose (FIG. 7A) ([3]; glucose 0.55 g/kg i.v.): significantly lower; Induction of mutations [4]: did not induce mutations; Glucose infusion rate (GIR) in clamp (FIG. 4) [5]: fully normal; Hepatic TG (triacylglycerol) [6]: 7.7 ± 2.9 µmol/g; Epididymal adipose tissue [7]: 3.1 ± 0.2 g; Retroperitoneal adipose tissue [7]: 2.7 ± 0.2 g; 4-OH butyrate (plasma ketone bodies) [8]: 3.44 ± 1.37 mmol/L; FFA (plasma free fatty acids) [8]: 0.53 ± 0.21 mEq/L; Mutagenicity [9]: not mutagenic; Plasma lipids: cholesterol [10]: 30 % reduction of control; Plasma lipids: triglycerides [10]: 45 % reduction of control; Induction of mutations [11]: did not induce mutations
